“Also recorded” adds a separate entry of the source. Read-outs that look alike come from different tables or passages of the source.
Assays:
[1] = tested on: HL-60 cells; experiment: Cell viability assay (MTT/MTS); format: cell-based, human; conditions: HL-60, 48-72 h
Method: FIG. 17: SALL4 peptide reduces the viability of leukemic HL-60 cells. HL60 human acute promyelocytic leukemia cells (ATCC), were cultured in RPMI medium with 10% FBS (Invitrogen). 5000 cells/well were seeded in 96 well plate. Peptides: MSRRKQAKPQHI-wt (SEQ ID NO: 1) and MSRRAQAKPQHI-mutant (SEQ ID NO: 6) were synthesized by Biosynthesis Inc. to 85% purity. Peptides and TSA were re-suspended in PBS and added to the final concentration as indicated. WT peptide was re-added 24 hours after the initial addition as indicated. Experiment was performed in triplicate. MTS assay was performed by adding 20 ul of the CellTiter 96® AQueous One Solution Reagent (Promega) directly to the cells in medium, incubating for 2 hours and then recording absorbance at 490 nm with a 96-well plate reader. The quantity of formazan product as measured by the amount of 490 nm absorbance is directly proportional to the number of living cells in culture.
Cell viability assay (MTT) (Invitrogen) was performed according to the manufacturer's instructions. Briefly—10000 cells were seeded in 100 ul medium in 96 well plates. The next day cells were treated as indicated on the figures. At the designated time after the treatment 20 ul of 5 mg/ml MTT solution was added to each well. After 3.5 h incubation at 37 C the medium was removed and the reaction was terminated with a solution of 4 mM HCl, 0.1% Nondet P-40 (NP40) all in isopropanol in dark on orbital shaker for […]. at room temperature. The absorbance was read at 590 nm with a reference filter of 620 nm in Spectromax M3 (ABI) spectrophotometer.
Multiple cell lines with or without SALL4 expression were chosen to test the biological effect(s) of this wt peptide. Wt or its control (Scr or Mut) peptide was delivered into tumor cells at various concentrations, and their effects on cells were evaluated at 48 or 72 hours post treatment by a MTT assay (Manufacture name). […] Since, as proposed herein, wt peptide can compete with SALL4 and release it from recruiting HDAC complex NuRD, the wt peptide would likely work as a HDAC inhibitor. Therefore, as a positive control, TSA, a broad HDAC inhibitor, was used in the same group of experiments along with the wt and Scr peptide.
Multiple leukemic and solid tumor cancer cell lines with high or low/no SALL4 expression (FIG. 10A) were chosen to test the biological effect(s) of the wild type peptide. Wild type or scrambled peptide was delivered into tumor cells at various concentrations, and their effects on cells were evaluated 72 hours post-treatment by the MTS cell viability assay. […] The effect of wild type peptide is SALL4-specific, as it had no effect on KBM5, an AML cell line with undetectable endogenous SALL4 expression. […] Therefore, expression of PTEN was evaluated in AN3CA cells along with other cell lines. […]

[2] = tested on: PC9 cells; experiment: Peptide treatment of lung cancer cells; format: cell-based
From the text: 56B: Cell image after SALL4 knockdown in H522 cells.
A small peptide has been generated to block the oncogenic function of SALL4. […] Therefore, shown herein is that SALL4 plays a crucial role in tumor initiation and development of NSCLC, and targeting SALL4 may provide an innovated therapeutic approach in the treatment of lung cancer.

| Substance | cell viability [1] | cell viability ([1]; listed as WT) | cell viability ([1]; listed as wild type peptide) | cell growth / cell death ([2]; listed as Wt) | cell growth / cell death ([2]; listed as small peptide) | cell growth / cell death [2] |
| --- | --- | --- | --- | --- | --- | --- |
| H-MSRRKQAKPQHI-OH [wt peptide, MSRRKQAKPQHI] | decreased cell viability | decrease in cell viability | decreased cell viability; also recorded: reduces the number of the living cells | cell growth arrest | resulted in cell death | – |
| Scr peptide: same 12 amino acids as the wt peptide, but in a scrambled sequence; negative control (SRMRQKIHPKIQ) [reference compound] | remained unaffected | – | – | – | – | no effect on the cells |

Reference: US9365851B2, “Spalt-like transcription factor 4 (SALL4) and uses thereof” (National University of Singapore, priority 2011, dated 2016)
